Assay [1] deals with T1, CD73 (Homo sapiens, UniProt P21589).
T1 sequence (P21589 27-574): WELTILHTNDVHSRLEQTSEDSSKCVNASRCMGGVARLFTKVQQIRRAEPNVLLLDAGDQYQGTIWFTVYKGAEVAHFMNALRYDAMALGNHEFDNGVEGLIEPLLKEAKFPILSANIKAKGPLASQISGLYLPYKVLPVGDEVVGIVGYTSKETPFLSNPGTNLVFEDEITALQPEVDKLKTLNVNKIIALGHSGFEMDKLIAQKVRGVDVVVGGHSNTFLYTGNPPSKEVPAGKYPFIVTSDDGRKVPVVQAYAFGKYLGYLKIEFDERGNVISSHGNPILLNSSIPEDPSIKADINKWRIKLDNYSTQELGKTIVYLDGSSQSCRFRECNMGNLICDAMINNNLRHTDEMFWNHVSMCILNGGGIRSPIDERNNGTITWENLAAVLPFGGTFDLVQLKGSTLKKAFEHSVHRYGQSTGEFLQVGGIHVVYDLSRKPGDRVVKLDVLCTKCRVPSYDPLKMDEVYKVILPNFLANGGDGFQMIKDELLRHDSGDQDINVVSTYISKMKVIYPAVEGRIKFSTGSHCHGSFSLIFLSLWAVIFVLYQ
Kind of assay: Human CD73 Biochemical Assay. To be noted: 0.05 nM recombinant CD73; AMP 5.56 μM final; 10 min at room temperature; LC/MS adenosine readout; read-out: Enzymatic IC50 against human CD73. On the procedure: The purpose of this assay is to identify and characterize inhibitors of human CD73 enzymatic activity. Compound serial dilution (1:3) was prepared with Echo 555 liquid handler (Labcyte) into the corresponding wells of a 384-well plate. 10 μL of enzyme working solution (containing 0.05 nM recombinant CD73 protein, 10 mM Tris pH 7.5, 100 mM NaCl, 0.01% BSA, 0.2 mM Octyl glucoside and 1 mM NaH2PO4) was added to the assay plate and incubated with compounds for 15 minutes at room temperature. After adding 15 μL of AMP working solution (Containing 10 mM Tris pH 7.5, 100 mM NaCl, 0.01% BSA, 0.2 mM Octyl glucoside, with 5.56 μM of AMP final concentration) and incubate for 10 min at room temperature. Stop the reaction by adding 75 μL of stop solution (5% TCA in H2O containing 250 nM 13C5-adenosine) to each well for 10 min incubation. After centrifugation, 75 μL of the mixture was transferred to a new 384-well plate for LC/MS analysis.
Samples from the 384-well plates, were loaded onto an autosampler deck, then injected with ADDA-LC-MS/MS. The aqueous mobile phase is 0.1% formic acid in water. The organic mobile phase is 0.1% formic acid in acetonitrile. Flow rate is maintained at 0.8 mL/minute using Shimadzu pumps. The column is ACE 5 Phenyl, 50×2.1 mm. The analysis was performed on a SCIEX triple quadrupole mass spectrometer operating in positive ion mode. The effluent from the HPLC column was directly introduced into the electrospray ionization (ESI). Multiple reaction monitoring (MRM) is used to determine analyte and internal standard (IS) responses. The MRM for adenosine is 268.1/136.1, for 13C5-Adenosine (IS) is 273.2/136.2. The data is calculated using the peak area ratio (PAR) semi-quantitative method.

Assay [2] deals with T1, CD73. As to the kind of experiment: CD73 Cellular Assay. The class given is cell-based. The arrangement: 40 μL of MDA-MB-231 cells (ATCC, HTB-26, breast cancer); host or cells: MDA-MB-231. To be noted: MDA-MB-231 cells; 200 μM AMP working solution; 45 min at 37° C.; malachite readout; read-out: Cellular IC50 against CD73. On the procedure:
Compound serial dilution (1:3) was prepared with Echo 555 liquid handler (Labcyte) into the corresponding wells of a 384-well plate. 40 μL of MDA-MB-231 cells (ATCC, HTB-26, breast cancer, final concentration at 20,000 cells/mL) suspended in assay buffer (20 mM HEPES pH 7.4, 137 mM NaCl, 5.4 mM KCl, 1.3 mM CaCl2, 4.2 mM NaHCO3, 1 mg/mL glucose) were added into the corresponding wells of the plate. After incubating with compounds for 30 minutes, 40 μL of AMP working solution (200 μM AMP in assay buffer) was added into each well in the assay plate. The assay plate was then incubated in a 5% CO2 incubator (Thermo Fisher Scientific) at 37° C. for 45 min. After the reaction was completed, 50 μL of the supernatants was collected and transferred into a new 384 well plate. 10 μL of Malachite A was added to each well in the assay plate and incubated for 10 minutes. 10 μL of Malachite B was then added to each corresponding well of the plate and incubated for 30 minutes. Finally the absorbance value was read on the Envision plate reader at […]. Calculation percentage inhibition by using equation {% inhibition=100×[1−(X−MIN)/(MAX−MIN)]} where X equals to the well signal, Max equals signal of neutral control and MIN equals signal of inhibitor control.

Structures are written as SMILES.

As a reminder, the IC50 is the concentration that inhibits the measured activity by half.

For `Cn1nc(O[C@H](c2cncc(OCC(F)(F)F)c2)C(F)F)c2cc(-c3c[nH]c(=O)[nH]c3=O)nnc21` (single isomer, unassigned) [Example 8A], the values for the 50% inhibitory concentration (IC50) at CD73 [1] and on CD73 [2] were 0.07 nM and 0.66 nM, respectively.
Take `C[C@H](Oc1nn(C)c2nnc(-c3c[nH]c(=O)[nH]c3=O)cc12)c1cc(OCC(F)(F)F)ncn1` (single isomer, unassigned) [Example 14A]: the 50% inhibitory concentration (IC50) on CD73 [1] came to 0.09 nM; on CD73 [2] it was 1.04 nM.
As to `Cn1nc(O[C@H](c2cc(COC(F)(F)F)ccn2)C(F)F)c2cc(-c3c[nH]c(=O)[nH]c3=O)nnc21` (single isomer, unassigned) [Example 36A], the IC50 on CD73 [1] was found to be 0.08 nM; at CD73 [2], 0.62 nM.
Consider `C[C@H](OC1CC1)c1cc([C@@H](Oc2nn(C)c3nnc(-c4c[nH]c(=O)[nH]c4=O)cc23)C(F)F)ccn1` (single isomer, unassigned) [Example 37A], for which the half-inhibitory concentration (IC50) on CD73 [1] was determined as 0.13 nM; on CD73 [2], 0.87 nM.
`C[C@@H](OC1CC1)c1cc([C@@H](Oc2nn(C)c3nnc(-c4c[nH]c(=O)[nH]c4=O)cc23)C(F)F)ccn1` (single isomer, unassigned) [Example 37B]: the IC50 was determined as 0.09 nM at CD73 [1] and 0.84 nM on CD73 [2].
For `C[C@H]1COC[C@@H]1Oc1cc([C@@H](Oc2nn(C)c3nnc(-c4c[nH]c(=O)[nH]c4=O)cc23)C(F)F)ccn1` (stereo in doubt) [Example 40, 5-[1-methyl-3-[(1R)-2,2-difluoro-1-[2-[(trans)-4-methyltetrahydrofuran-3-yl]oxy-4-pyridyl]ethoxy]pyrazolo[3,4-c]pyridazin-5-yl]-1H-pyrimidine-2,4-dione], in that order: 0.05 nM and 0.57 nM.
In the case of `Cn1nc(O[C@H](c2cccc(OCC(F)(F)F)c2)C(F)F)c2cc(-c3c[nH]c(=O)[nH]c3=O)nnc21` [Example 1, 5-[3-[(1R)-2,2-difluoro-1-[3-(2,2,2-trifluoroethoxy)phenyl]ethoxy]-1-methyl-pyrazolo[3,4-c]pyridazin-5-yl]-1H-pyrimidine-2,4-dione], the half-inhibitory concentration (IC50) was determined as 0.08 nM at CD73 [1] and 0.7 nM on CD73 [2].
Regarding `[2H]C([2H])(Oc1ccnc([C@@H](Oc2nn(C)c3nnc(-c4c[nH]c(=O)[nH]c4=O)cc23)C(F)F)c1)C(F)(F)F` [Example 5, 5-[3-[(1R)-1-[4-(1,1-dideuterio-2,2,2-trifluoro-ethoxy)-2-pyridyl]-2,2-difluoro-ethoxy]-1-methyl-pyrazolo[3,4-c]pyridazin-5-yl]-1H-pyrimidine-2,4-dione], the concentration for half-maximal inhibition (IC50) at CD73 [2] came out at 0.52 nM.
The same measure, in the same setting: the result for `[2H]C([2H])([2H])n1nc(O[C@H](c2cc(OCC(F)(F)F)ccn2)C(F)F)c2cc(-c3c[nH]c(=O)[nH]c3=O)nnc21` [Example 6, 5-[3-[(1R)-2,2-difluoro-1-[4-(2,2,2-trifluoroethoxy)-2-pyridyl]ethoxy]-1-(trideuteriomethyl)pyrazolo[3,4-c]pyridazin-5-yl]-1H-pyrimidine-2,4-dione] reads 0.43 nM; that for `CC(Oc1ccnc([C@@H](Oc2nn(C)c3nnc(-c4c[nH]c(=O)[nH]c4=O)cc23)C(F)F)c1)C(F)(F)F` (stereo partly drawn) [Example 17, 5-[1-methyl-3-[(1R)-2,2-difluoro-1-[4-(2,2,2-trifluoro-1-methyl-ethoxy)-2-pyridyl]ethoxy]pyrazolo[3,4-c]pyridazin-5-yl]-1H-pyrimidine-2,4-dione], 0.39 nM.
For `Cn1nc(O[C@H](c2cc(OCC3CC3(F)F)ccn2)C(F)F)c2cc(-c3c[nH]c(=O)[nH]c3=O)nnc21` (stereo partly drawn) [Example 18, 5-[1-methyl-3-[(1R)-1-[4-[(2,2-difluorocyclopropyl)methoxy]-2-pyridyl]-2,2-difluoro-ethoxy]pyrazolo[3,4-c]pyridazin-5-yl]-1H-pyrimidine-2,4-dione], the IC50 on CD73 [2] is 0.54 nM.
Regarding `Cn1nc(O[C@H](c2cc(OCC3(F)CC3)ccn2)C(F)F)c2cc(-c3c[nH]c(=O)[nH]c3=O)nnc21` [Example 19, 5-[3-[(1R)-2,2-difluoro-1-[4-[(1-fluorocyclopropyl)methoxy]-2-pyridyl]ethoxy]-1-methyl-pyrazolo[3,4-c]pyridazin-5-yl]-1H-pyrimidine-2,4-dione], the IC50 at CD73 [2] was found to be 0.59 nM.
Regarding `Cn1nc(O[C@H](c2cc(OCC3(C#N)CC3)ccn2)C(F)F)c2cc(-c3c[nH]c(=O)[nH]c3=O)nnc21` [Example 22, 1-[[2-[(1R)-1-[5-(2,4-dioxo-1H-pyrimidin-5-yl)-1-methyl-pyrazolo[3,4-c]pyridazin-3-yl]oxy-2,2-difluoro-ethyl]-4-pyridyl]oxymethyl]cyclopropanecarbonitrile], the IC50 at CD73 [2] was 0.43 nM.
Turning to `Cn1nc(O[C@H](c2ccc3c(c2)N(CC(F)(F)F)CCO3)C(F)F)c2cc(-c3c[nH]c(=O)[nH]c3=O)nnc21` [Example 25, 5-[3-[(1R)-2,2-difluoro-1-[4-(2,2,2-trifluoroethyl)-2,3-dihydro-1,4-benzoxazin-6-yl]ethoxy]-1-methyl-pyrazolo[3,4-c]pyridazin-5-yl]-1H-pyrimidine-2,4-dione], on CD73 [2], the half-inhibitory concentration (IC50) came to 1.29 nM.
In the case of `CCOc1cc([C@@H](Oc2nn(C)c3nnc(-c4c[nH]c(=O)[nH]c4=O)cc23)C(F)F)ccn1` [Example 29, 5-[3-[(1R)-1-(2-ethoxy-4-pyridyl)-2,2-difluoro-ethoxy]-1-methyl-pyrazolo[3,4-c]pyridazin-5-yl]-1H-pyrimidine-2,4-dione], the IC50 at CD73 [2] came out at 0.51 nM.
On the same count and under the same terms, the result for `Cn1nc(O[C@H](c2ccnc(CN3CCC(F)(F)C3)c2)C(F)F)c2cc(-c3c[nH]c(=O)[nH]c3=O)nnc21` [Example 33, 5-[3-[(1R)-1-[2-[(3,3-difluoropyrrolidin-1-yl)methyl]-4-pyridyl]-2,2-difluoro-ethoxy]-1-methyl-pyrazolo[3,4-c]pyridazin-5-yl]-1H-pyrimidine-2,4-dione] reads 0.63 nM; that for `[2H]C([2H])([2H])C([2H])([2H])Oc1cc([C@@H](Oc2nn(C)c3nnc(-c4c[nH]c(=O)[nH]c4=O)cc23)C(F)F)ncn1` [Example 39A, 5-[3-[(1R)-2,2-difluoro-1-[6-(1,1,2,2,2-pentadeuterioethoxy)pyrimidin-4-yl]ethoxy]-1-methyl-pyrazolo[3,4-c]pyridazin-5-yl]-1H-pyrimidine-2,4-dione], 0.65 nM.
For the molecule `COC1(COc2cc([C@@H](Oc3nn(C)c4nnc(-c5c[nH]c(=O)[nH]c5=O)cc34)C(F)F)ccn2)CC1` [Example 41, 5-[3-[(1R)-2,2-difluoro-1-[2-[(1-methoxycyclopropyl)methoxy]-4-pyridyl]ethoxy]-1-methyl-pyrazolo[3,4-c]pyridazin-5-yl]-1H-pyrimidine-2,4-dione], on CD73 [2], the half-inhibitory concentration (IC50) stood at 0.73 nM.
